Data: patent publication US11458189B2, “Cytoprotective drugs” (BALMES TRANSPLANTATION, priority 2017, dated 2022)
Starred links: 1 amine or outer side, 2 acyl side, 3 side chain; linkers in the order of their positions; H or OH if unused. Positions of bridges follow the written chain, without caps; N, C: chain ends. Non-standard residues stand in square brackets, D forms with d. Residues, ends and D or L forms follow the SMILES beside them. ξ: configuration not given here. *: point of attachment. pTerphenylCO(4''-OnC5H11) = CCCCCOc1ccc(-c2ccc(-c3ccc(C(=O)*)cc3)cc2)cc1; Orn(4R-OH,5R-OH) = O=C([C@H](C[C@@H](O)[C@@H](O)N[*:3])N[*:1])[*:2]; hTyr(3S-OH,4S-OH) = N[C@H](C(=O)O)[C@H](O)[C@@H](O)c1ccc(O)cc1; Pro(3S-OH,4S-Me) = C[C@H]1CN[C@H](C(=O)O)[C@H]1O; ξPro(4R-OH) = O=C(O)C1C[C@@H](O)CN1

Tested on: Rat Primary Kidney Glomerular Endothelial cells
Assay: Oxygen and glucose deprivation followed by replenishment, cell survival (calcein AM), rat glomerular endothelial cells;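 as to Survival rate (%): 100% is hypoxia control with glucose and 0% is untreated OGD control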
Format: cell-based
Experimental: Anidulafungin and micafungin were tested on Human Renal Glomerular Endothelial Cells (HRGEC, Innoprot P10665), on Human Renal Proximal Tubular Epithelial Cells (HRPTEpiC, Innoprot P10662), on Human Astrocytes (HA, caltag SC-1800), on Human Cardiac Microvascular Endothelial Cells (HCMEC, Caltag SC-6000), on Human Hepatic Sinusoidal Endothelial Cells (HHSEC, Caltag SC-5000), on Rat Primary Kidney Glomerular Endothelial cells (Cellbiologics, RN-6014G) and on Bovine Brain Microvascular Endothelial Cells (BBMEC, Caltag SC-B100).
In a first phase, these isolated, purified and cryopreserved cells are thawed and multiplied according to the supplier's recommendations in T75 or T175 flasks pre-coated with 2 μg of fibronectin/[…] (CORNING) for HRGEC, HCMEC, HHSEC and BBMEC, or 2 μg poly-L-lysin/cm^2 (Caltag SC-0403) for HRPTEpiC and HA, or 15 mL/flask 175 cm^2 gelatin-based solution (Cellbiologics) in the presence of endothelial cell supplemented growth medium ECM (P60104, INNOPROT, Caltag, SC-1001) for HRGEC, HCMEC, HHSEC, RPKGEC or BBMEC, or astrocyte cell supplemented growth medium AM (Caltag SC-1801) for HA or epithelial cell supplemented growth medium EpiCM (P60106, INNOPROT) for HRPTEpiC, at 37° C. under 5% CO2 and saturated humidity until their confluency. They are then harvested by trypsinization according to the method described by the supplier for exactly 5 minutes and then reseeded in new flasks a maximum of three times.
To carry out the oxygen and glucose deprivation test followed by their replenishment, the cells will be seeded in 96-well black plates with transparent flat bottom (GREINER). Once a sufficient number of cells has been obtained to allow seeding of 2000 to 15000 cells per well of 96-well plates depending on the cell type, the cells are seeded in these 96-well plates previously coated with an extracellular matrix as listed above for the flasks. The cells are cultured for 5 to 8 days according to the cell type, in the presence of the same growth medium as in the flask as described above except for HRGEC and HRPTEpiC for which DMEM (DUTSCHER) with 1 g/L of supplemented glucose is used, at 37° C. under 5% CO2 and saturated humidity to obtain confluency.
On the first day of oxygen and glucose deprivation, (5th, 6th, 7th or 8th day of culture), the culture conditions are drastically changed. The medium of all plates is removed and replaced by DMEM (DUTSCHER) medium without glucose and supplemented only with 1% penicillin-streptomycin (DUTSCHER). Anidulafungin or micafungin dissolved in dimethyl sulfoxide (DMSO) is then added to each well at the desired concentration, resulting in a maximum of 1% DMSO, and the plates are placed under hypoxia at <1% 02 and 5% CO2 at 37° C. for 24 hours of culture. Each compound was tested in a concentration range.
After 24 hours, the growth medium is changed and replaced by a richer medium, DMEM (DUTSCHER) at 1 g/L glucose and 2% FBS (INNOPROT) and 1% penicillin-streptomycin (DUTSCHER). These media will have been pre-equilibrated at 37° C. in advance. The cells are then returned to culture at 37° C. under 20% 02 and 5% CO2 for 22h.
After 22 hours of reoxygenation, the potential protective effect of anidulafungin or micafungin is measured by a cell viability test using calcein AM (CORNING), which is a dye substrate. The calcein AM can easily cross the cell membrane of the viable cells. The AM ester groups mask the part of the molecule that chelates calcium. Once inside the cells, the (non-fluorescent) calcein AM is hydrolyzed to (fluorescent) calcein by endogenous esterases. The resulting calcein molecule binds to calcium inside the cell and remains trapped inside the cell. These molecules emit strong green fluorescence when subjected to […] of a particular wavelength (495 nm). Since dead cells lack esterase activity, only living cells are labelled.
This cell viability test is performed in two steps. […]

[1] = [Anidulafungin] log μM 0.1760913
[2] = [Anidulafungin] log μM 0.4771213
[3] = [Anidulafungin] log μM 0.7781513
[4] = [Anidulafungin] log μM 0.845098
[5] = [Anidulafungin] log μM 0.9542425
[6] = [Anidulafungin] log μM −0.154902
[7] = [Anidulafungin] log μM −0.30103
[8] = [Anidulafungin] log μM −0.5228788

CCCCCOc1ccc(-c2ccc(-c3ccc(C(=O)N[C@H]4C[C@@H](O)[C@@H](O)NC(=O)[C@@H]5[C@@H](O)[C@@H](C)CN5C(=O)[C@H]([C@@H](C)O)NC(=O)[C@H]([C@H](O)[C@@H](O)c5ccc(O)cc5)NC(=O)C5C[C@@H](O)CN5C(=O)[C@H]([C@@H](C)O)NC4=O)cc3)cc2)cc1 (stereo partly drawn) [Anidulafungin] ({pTerphenylCO(4''-OnC5H11)}-[Orn(4R-OH,5R-OH)]T[ξPro(4R-OH)][hTyr(3S-OH,4S-OH)]T[Pro(3S-OH,4S-Me)]; lactam 1-C)
Globalfluo assay 1 ([Anidulafungin] log μM 0): 2763556 arbitrary units
Globalfluo assay 2 ([Anidulafungin] log μM 0): 3715544 arbitrary units
Globalfluo assay 3 ([Anidulafungin] log μM 0): 3395182 arbitrary units
Mean globalfluo ([Anidulafungin] log μM 0): 3291427 arbitrary units
Survival rate (%) ([Anidulafungin] log μM 0): −1%
Globalfluo assay 1 [1]: 4125220 arbitrary units
Globalfluo assay 2 [1]: 3558016 arbitrary units
Globalfluo assay 3 [1]: 4929089 arbitrary units
Mean globalfluo [1]: 4204108 arbitrary units
Survival rate (%) [1]: 3%
Globalfluo assay 1 ([Anidulafungin] log μM 0.30103): 6944934 arbitrary units
Globalfluo assay 2 ([Anidulafungin] log μM 0.30103): 4307906 arbitrary units
Globalfluo assay 3 ([Anidulafungin] log μM 0.30103): 5211398 arbitrary units
Mean globalfluo ([Anidulafungin] log μM 0.30103): 5488079 arbitrary units
Survival rate (%) ([Anidulafungin] log μM 0.30103): 8%
Globalfluo assay 1 ([Anidulafungin] log μM 0.39794): 7911533 arbitrary units
Globalfluo assay 2 ([Anidulafungin] log μM 0.39794): 3661322 arbitrary units
Globalfluo assay 3 ([Anidulafungin] log μM 0.39794): 9914104 arbitrary units
Mean globalfluo ([Anidulafungin] log μM 0.39794): 7162320 arbitrary units
Survival rate (%) ([Anidulafungin] log μM 0.39794): 15%
Globalfluo assay 1 [2]: 5124858 arbitrary units
Globalfluo assay 2 [2]: 4212586 arbitrary units
Globalfluo assay 3 [2]: 3823154 arbitrary units
Mean globalfluo [2]: 4386866 arbitrary units
Survival rate (%) [2]: 4%
Globalfluo assay 1 ([Anidulafungin] log μM 0.60206): 7387656 arbitrary units
Globalfluo assay 2 ([Anidulafungin] log μM 0.60206): 4239781 arbitrary units
Globalfluo assay 3 ([Anidulafungin] log μM 0.60206): 4439823 arbitrary units
Mean globalfluo ([Anidulafungin] log μM 0.60206): 5355753 arbitrary units
Survival rate (%) ([Anidulafungin] log μM 0.60206): 7%
Globalfluo assay 1 ([Anidulafungin] log μM 0.69897): 10033620 arbitrary units
Globalfluo assay 2 ([Anidulafungin] log μM 0.69897): 4718363 arbitrary units
Globalfluo assay 3 ([Anidulafungin] log μM 0.69897): 7321110 arbitrary units
Mean globalfluo ([Anidulafungin] log μM 0.69897): 7357698 arbitrary units
Survival rate (%) ([Anidulafungin] log μM 0.69897): 16%
Globalfluo assay 1 [3]: 10219130 arbitrary units
Globalfluo assay 2 [3]: 11308900 arbitrary units
Globalfluo assay 3 [3]: 8342703 arbitrary units
Mean globalfluo [3]: 9956911 arbitrary units
Survival rate (%) [3]: 26%
Globalfluo assay 1 [4]: 10949560 arbitrary units
Globalfluo assay 2 [4]: 9736722 arbitrary units
Globalfluo assay 3 [4]: 8273113 arbitrary units
Mean globalfluo [4]: 9653132 arbitrary units
Survival rate (%) [4]: 25%
Globalfluo assay 1 ([Anidulafungin] log μM 0.90309): 15350400 arbitrary units
Globalfluo assay 2 ([Anidulafungin] log μM 0.90309): 11785650 arbitrary units
Globalfluo assay 3 ([Anidulafungin] log μM 0.90309): 7401575 arbitrary units
Mean globalfluo ([Anidulafungin] log μM 0.90309): 11512542 arbitrary units
Survival rate (%) ([Anidulafungin] log μM 0.90309): 32%
Globalfluo assay 1 [5]: 9960942 arbitrary units
Globalfluo assay 2 [5]: 10967130 arbitrary units
Globalfluo assay 3 [5]: 15364830 arbitrary units
Mean globalfluo [5]: 12097634 arbitrary units
Survival rate (%) [5]: 35%
Globalfluo assay 1 [6]: 3628425 arbitrary units
Globalfluo assay 2 [6]: 3463582 arbitrary units
Globalfluo assay 3 [6]: 3208621 arbitrary units
Mean globalfluo [6]: 3433543 arbitrary units
Survival rate (%) [6]: 0%
Globalfluo assay 1 [7]: 2638281 arbitrary units
Globalfluo assay 2 [7]: 3646882 arbitrary units
Globalfluo assay 3 [7]: 3842217 arbitrary units
Mean globalfluo [7]: 3375793 arbitrary units
Survival rate (%) [7]: −1%
Globalfluo assay 1 [8]: 3892260 arbitrary units
Globalfluo assay 2 [8]: 3780606 arbitrary units
Globalfluo assay 3 [8]: 4016223 arbitrary units
Mean globalfluo [8]: 3896363 arbitrary units
Survival rate (%) [8]: 2%
Globalfluo assay 1 ([Anidulafungin] log μM −1): 3282790 arbitrary units
Globalfluo assay 2 ([Anidulafungin] log μM −1): 3299018 arbitrary units
Globalfluo assay 3 ([Anidulafungin] log μM −1): 4299152 arbitrary units
Mean globalfluo ([Anidulafungin] log μM −1): 3626987 arbitrary units
Survival rate (%) ([Anidulafungin] log μM −1): 0%
Globalfluo assay 1 ([Anidulafungin] log μM −2): 5018485 arbitrary units
Globalfluo assay 2 ([Anidulafungin] log μM −2): 4417533 arbitrary units
Globalfluo assay 3 ([Anidulafungin] log μM −2): 3450400 arbitrary units
Mean globalfluo ([Anidulafungin] log μM −2): 4295473 arbitrary units
Survival rate (%) ([Anidulafungin] log μM −2): 3%
Globalfluo assay 1 ([Anidulafungin] log μM −3): 2824954 arbitrary units
Globalfluo assay 2 ([Anidulafungin] log μM −3): 3274736 arbitrary units
Globalfluo assay 3 ([Anidulafungin] log μM −3): 3773899 arbitrary units
Mean globalfluo ([Anidulafungin] log μM −3): 3291196 arbitrary units
Survival rate (%) ([Anidulafungin] log μM −3): −1%
